Measured values reported in patent US6670354B2, “Methods to enhance white blood cell count” (AnorMed, Inc., priority 1999, dated 2003).

Tests used:
[1] = system: white blood cell (WBC) count
Method: Eleven human patients having initial white blood cell counts of 4,000-6,500 cells/mm^3 were used in the study. An intravenous dosing solution of AMD3100 (i.e., 1,1′-[1,4-phenylene-bis(methylene)]-bis-1,4,8,11-tetraazacyclotetradecane) were prepared from a stock solution which is a 1 mg/ml 1:10 dilution of a concentrate in 0.9% saline (normal saline) under sterile conditions. Aliquots from this stock solution were added to 50-ml bags of 0.9% saline for intravenous injection in amounts to achieve the desired dosage levels (10 μg/kg-80 μg/kg).
The subjects described in this example already contained an indwelling peripheral intravenous catheter. The prescribed amount of AMD3100 was administered over 15 minutes by intravenous fusion in a single dose. Blood samples were obtained prior to the dose, and at various times up to 24 hours after dose administration.
Eleven human subjects received intravenous administration of AMD-3100 at doses 10, 20, 40, and 80 μg/kg. Five subjects also received a single subcutaneous injection of AMD-3100 at doses of 40 and 80 μg/kg. Three patients were administered dosages of 10 μg/kg (open circles); 3 patients were administered dosages of 20 μg/kg (solid circles); 3 patients were administered 40 μg/kg (open triangles); and 2 patients were administered 80 μg/kg (closed triangles).

[2] = system: white blood cell (WBC) count; remark: listed apart in the source
Method: Eight patients received AMD-3100 at infusion dose rates of 2.5 μg/kg/hr (patients 1-4) and 5.0 μg/kg/hr (patients 5-8).

## c1cc(CN2CCCNCCNCCCNCC2)ccc1CN1CCCNCCNCCCNCC1 [AMD3100, 1,1′-[1,4-phenylene-bis(methylene)]-bis-1,4,8,11-tetraazacyclotetradecane]
[1]; all 11 patients, 10, 20, 40, 80 μg/kg i.v. over 15 minutes, single dose, over the succeeding 5-10 hours, tapered off after about 24 hours, not returning to original level
  effect on white blood cell count after administration: marked increase in white blood cell count
[1]; one patient who received 80 μg/kg i.v., from 6,000 cells/mm^3 before dose
  white blood cell count, peak value: 19,000 cells/mm^3
[1]; patient showing the least response, 20 μg/kg i.v., from about 6,300 cells/mm^3
  white blood cell count after increase: about 9,000 cells/mm^3
[2]; continuous infusion 2.5 or 5.0 μg/kg/hr for up to 10 days, HIV-infected patients
  time for WBC counts to return to baseline after discontinuation of the infusion: 7 days
[2]; following single dose or with continuous infusion
  ability to enhance WBC count in human patients: consistently able to enhance WBC count
